Calls of active or inactive are those of the source. The rule behind the calls is not given here. Where a SMILES comes first, the peptide text is derived from it. [ ]: non-standard residue; d: D form. Hyp = O=C(O)[C@@H]1C[C@@H](O)CN1
Test system: Platelet
Experiment: Inhibition of type III collagen-induced platelet aggregation in human platelet rich plasma at 1 mM
Format: functional

Structure (SMILES)	inhibition	inhibition at 1000 µM [%]
C[C@H](NC(=O)[C@@H]1C[C@@H](O)CN1C(=O)[C@@H](N)CCCCN)C(=O)N[C@@H](CCC(=O)O)C(=O)N1C[C@H](O)C[C@H]1C(=O)N[C@@H](C)C(=O)N1CCC[C@H]1C(=O)N[C@@H](CCCCN)C(=O)O (H-K[Hyp]AE[Hyp]APK-OH)	inactive	
C[C@H](NC(=O)[C@@H]1C[C@@H](O)CN1C(=O)[C@H](CCC(=O)O)NC(=O)CNC(=O)[C@@H]1C[C@@H](O)CN1C(=O)[C@@H](N)CCCCN)C(=O)N1CCC[C@H]1C(=O)N[C@@H](CCCCN)C(=O)O (H-K[Hyp]GE[Hyp]APK-OH)		72.1
NCCCC[C@H](NC(=O)[C@@H]1CCCN1C(=O)CNC(=O)[C@@H]1C[C@@H](O)CN1C(=O)[C@H](CCC(=O)O)NC(=O)CNC(=O)[C@@H]1C[C@@H](O)CN1C(=O)[C@@H](N)CCCCN)C(=O)O (H-K[Hyp]GE[Hyp]GPK-OH)		86.1
NCCCC[C@H](NC(=O)[C@H](CCCCN)NC(=O)[C@@H]1C[C@@H](O)CN1C(=O)[C@@H]1C[C@@H](O)CN1)C(=O)N[C@@H](CCC(=O)O)C(=O)N1CCC[C@H]1C(=O)NCC(=O)NCC(=O)O (H-[Hyp][Hyp]KKEPGG-OH)	inactive	

— ChEMBL document CHEMBL1158363, “Circular dichroism studies of type III collagen mimetic peptides with anti- or pro-aggregant activities on human platelets” (2009)
